The values that follow come from BindingDB's records for doi:10.1016/0960-894X(96)00068-6 (1996).

In general, IC50 refers to the concentration at which inhibition is half-maximal. The low end stands for greater potency in that assay, the high end for weaker potency in that assay.

The structures appear in SMILES notation. A value given as a limit tells only on which side of the number the result lay.

The nature of assay [1]: Compound was evaluated for inhibition of beta-galactosidase from aspergillus oryzae (sigma G 7256).
The nature of assay [2]: Compound was evaluated for inhibition of beta-glucosidase from almonds(sigma G 4511).
The nature of assay [3]: Inhibition of jack bean alpha-mannosidase.
Assay [4] can be described thus: Compound was evaluated for inhibition of alpha-fucosidase from bovine kidney(sigma F 5884).
The nature of assay [5]: Compound was evaluated for inhibition of alpha-galactosidase from green coffee beans (sigma G 8507).

In the case of `CCCCN1CC(C)C(O)C(O)C1` (stereo not given) [1-Butyl-5-methyl-piperidine-3,4-diol], the half-inhibitory concentration (IC50) is more than 1000 µM in assay [1]; 80 µM in assay [2]; more than 1000 µM in assay [3]; 270 µM in assay [4]; more than 1000 µM in assay [5].
